# Test results taken from ChEMBL document CHEMBL3046565, “Fungicidal and herbicidal activities of berberine related alkaloids” (2000).
# Assays:
# Type in all cases: functional
# [1] = tested on: Blumeria graminis f. sp. tritici; test: Antifungal activity against Blumeria graminis f. sp. tritici on wheat plant assessed as disease control at 100 ppm after 24 hr
# [2] = tested on: Pyricularia oryzae; test: microbe, parasite or virus in culture; settings: 24 h
# [3] = tested on: Parastagonospora nodorum; test: Antifungal activity against Phaeosphaeria nodorum on wheat plant assessed as disease control at 100 ppm after 24 hr
# [4] = tested on: Agrostis stolonifera var. palustris; test: Herbicidal activity against Agrostis stolonifera var. palustris at 1 ppm after 9 days relative to control
# [5] = tested on: Ustilago maydis; test: Antifungal activity against Ustilago maydis on rice plant at 25 ppm after 24 hr; settings: Mycosarcoma maydis
# [6] = tested on: Puccinia recondita; test: Antifungal activity against Puccinia recondita on wheat plant assessed as disease control at 100 ppm after 24 hr
# [7] = tested on: Lemna minor; test: Herbicidal activity against Lemna minor (common duckweed) at 1 ppm after 9 days relative to control
# [8] = tested on: Parastagonospora nodorum; test: Antifungal activity against Phaeosphaeria nodorum on wheat plant at 25 ppm after 24 hr
# [9] = tested on: Phytophthora infestans; test: microbe, parasite or virus in culture; settings: in Oryza sativa, 24 h
# [10] = tested on: Rhizoctonia solani; test: Antifungal activity against Rhizoctonia solani on rice plant at 25 ppm after 24 hr
# [11] = tested on: Zymoseptoria tritici; test: Antifungal activity against Zymoseptoria tritici on wheat plant at 25 ppm after 24 hr
Structure (SMILES),Activity [1],inhibition at 25 ppm [2],Activity [3],Activity [4],inhibition at 25 ppm [5],Activity [6],Activity [7],inhibition at 25 ppm [8],inhibition at 25 ppm [9],inhibition at 25 ppm [10],inhibition at 25 ppm [11]
CCOc1c(OC)ccc2c(CC)c3[n+](cc12)CCc1cc2c(cc1-3)OCO2.[Cl-] [9-O-ETHYL-13-ETHYLBERBERRUBINE],0%,0%,87%,0%,0%,8%,70%,0%,0%,0%,90%
COc1ccc2c(c1OC)C[N+]1(C)CCc3cc4c(cc3C1=C2C)OCO4.[Cl-] (stereo unspecified),0%,0%,0%,0%,40%,0%,0%,0%,0%,0%,0%
COc1ccc2c(C)c3[n+](cc2c1OC)CCc1cc2c(cc1-3)OCO2.[Cl-],0%,0%,0%,0%,0%,75%,75%,0%,0%,0%,80%
COc1ccc2c(c1OC)C[N@+]1(C)CCc3cc4c(cc3[C@@H]1[C@H]2O)OCO4.[Cl-],0%,0%,0%,0%,0%,0%,0%,0%,0%,0%,0%
CCOc1c(OC)ccc2cc3[n+](cc12)CCc1cc2c(cc1-3)OCO2.[Cl-] [9-O-ETHYLBERBERRUBINE],0%,0%,0%,0%,0%,75%,70%,0%,0%,0%,90%
COc1cc2c(cc1OC)-c1c(C)c3ccc(OC)c(OC)c3c[n+]1CC2.[Cl-],0%,0%,0%,0%,0%,0%,65%,0%,0%,0%,0%
COc1ccc2c(c1OC)CN1CCc3cc4c(cc3[C@@H]1[C@@H]2C)OCO4.Cl,0%,0%,0%,0%,0%,0%,0%,0%,0%,0%,0%
CCc1c2[n+](cc3c(OC)c(OC)ccc13)CCc1cc3c(cc1-2)OCO3.[Cl-],0%,0%,60%,0%,0%,58%,70%,0%,0%,0%,90%
COc1ccc2cc3[n+](cc2c1OC)CCc1cc2c(cc1-3)OCO2.[Cl-] [BERBERINE CHLORIDE],0%,0%,0%,0%,0%,0%,75%,0%,0%,0%,90%
CCCCCCc1c2[n+](cc3c(OC)c(OC)ccc13)CCc1cc3c(cc1-2)OCO3.[Cl-],0%,0%,87%,0%,0%,83%,60%,0%,0%,0%,100%
COc1ccc2c(c1OC)C[N@@+]1(C)CCc3cc4c(cc3[C@@H]1[C@@H]2C)OCO4.[Cl-],0%,0%,0%,0%,0%,0%,0%,0%,0%,0%,0%
